Measured values from PMC5617738 (Toxicology Reports, 2016).
Values after ≈ are worked out from the molar mass of the structure shown. Read-outs that look alike come from different tables or passages of the source.

Columns and labels:
PBMCs = details: read-out: IC50 (toxicity on PBMCs); cited from earlier work
rodent = details: cited from earlier work
HL-7702 = HL-7702 cells; cited from earlier work
[1] = Solubility in test solution; type: physicochemical; details: solution with a maximum of 1% DMSO
Plasmodium berghei = details: P. berghei infected mice, cited from earlier work
murine macrophage cells = details: cited from earlier work

For `Cc1cc(O)c2c(c1)C(=O)C(O)=CC2=O` [2,5-Dihydroxy-7-methyl-1,4-naphthoquinone], the IC50 (PBMCs) is listed as 54 µM.

In the case of `O=C1C=C(O)C(=O)c2ccccc21` [2-hydroxy-1,4-naphthoquinone], the In vivo toxicity (rodent) is listed as “highly toxic, causing both hemolytic anaemia and renal tubular necrosis” and the “Relative cytotoxicity among six naphthoquinones” value (HL-7702) is listed as “less toxic”.

In the case of `O=C1C(O)=C(Nc2ccccc2)C(=O)c2ccccc21` [4a, 2-hydroxy-3-anilino-1,4-naphthoquinone], the Solubility [1] is listed as “soluble in the solution with a maximum of 1% DMSO”, the “Parasitemia inhibition (%) Day 5” value (Plasmodium berghei; vs untreated control) is listed as 53.3% and the “Parasitemia inhibition (%) Day 7” value (Plasmodium berghei; vs untreated control) is listed as 18.5%. The “Mean Survival” value (Plasmodium berghei) was 32.5 ± 6.6 days, the “Parasitemia Day 5” value (Plasmodium berghei; first Parasitemia column) was 0.7 and the “Parasitemia Day 5” value (Plasmodium berghei; second Parasitemia column, head printed Day 5) was 2.2.

For `Cc1cc(O)c2c(c1)C(=O)C=CC2=O` [7-MJ, 5-Hydroxy-7-methyl-1,4-naphthoquinone], the IC50 (PBMCs) is given as 18.4 µM.

In the case of `Cc1cc(O)c2c(c1F)C(=O)C=CC2=O` [8-Fluoro-5-hydroxy-7-methyl-1,4-naphthoquinone], the IC50 (PBMCs) is given as 189 µM.

In the case of `COc1cc(C=O)ccc1O` [vanillin], the IC50 (murine macrophage cells) is listed as 645 µg/mL (≈ 4.24 mM).
